Values joined by “and” are separate entries in the source; they are usually repeats but may differ in a detail not shown here. Identical values can stand only once.
Columns and labels:
Type in all cases: in vivo, human
[1] = Phase I Part 1 food effect pharmacokinetics of plasma 15(S)-HEPE (standard ATPIII/TLC diet, high-fat diet); conditions: for Tlast / Tmax: median
Method: (§1) A Phase I, single-centre, randomised, double-blind, placebo-controlled study in male and female healthy volunteers aged 18 to 45 years, inclusive was performed. Fifty-seven (57) subjects were enrolled with 8 subjects per cohort (ideally 4 males and 4 females, but no less than 3 per gender). Cohort 5 enrolled a total of 9 subjects to account for discontinued subjects. The effective date of study commencement was defined as inclusion of the first subject (inclusion starts with the informed consent signature). Subjects who were enrolled in Part 1 of the study (single dose cohorts) could have been brought back and re-enrolled in Part 2 (multiple dose) provided they had no AEs related to the study drug and that there was at least a 14-day washout period before starting the multiple dose. There were 18 subjects who participated in both study parts. The subjects underwent screening within 21 days prior to study Day 1.
Cohort 2 also received 500 mg of DS102 in 2 fed states. While the first 500 mg dose was given in fasted state, the second and third 500 mg doses were given in fed state (standard ATPIII/TLC diet and high-fat diet, respectively). The second dose was received at least 14 days after their first dose and the third dose was received at least 14 days after their second dose.
(§2) In Part 1, DS102 capsules (Lot No. 2540M-1504) or matching placebo (Lot No. KM73) were administered in a single oral dose according to Table 1.
(§3) For study Part 1, Cohorts 1, 2, 3, and 4 blood samples were taken predose on Day 1 up to 312 hours postdose. For study Part 2, Cohorts 5, 6, and 7 blood samples were taken on Days 1, 14, and 28 at predose and up to 168 hours postdose. The appropriate PK parameters, e.g., Cmax, Tmax, AUC0-24, AUC0-last, AUC0-inf, AUC % ext, Kel, t½, RCmax, and RAUC were presented, where appropriate. Plasma 15(S)-HEPE data contained many values below the limit of quantitation (BLQ) and only sparse measurable concentrations leading to incomplete PK profiles. Given the nature of the data observed, conventional dose proportionality and steady-state analyses could not be performed. No inferential statistical analyses were performed for PK parameters.
(§4) Summary statistics, including sample size (N), arithmetic mean (mean), standard deviation (SD), coefficient of variation (CV %), median, minimum, and maximum were calculated for all nominal concentration time points. Plasma 15(S)-HEPE PK parameters were tabulated by treatment and listed by subject and parameter. Summary statistics (N, mean, SD, CV %, median, minimum, and maximum) were calculated for plasma 15(S)-HEPE PK parameters. In addition, geometric mean (Geom. Mean) and geometric CV % (Geom. CV %) were presented for AUCs and Cmax. Excluded subjects were included in the PK parameter table listings, but were excluded from the summary statistics and noted as such in the tables. Mean and individual concentration-time profiles were presented on linear and semi-log scales. Linear mean plots were presented with and without SD. Individual plots were presented on linear and semi-log scales.

[2] = Phase I Part 1 single ascending dose (SAD) pharmacokinetics of plasma 15(S)-HEPE, fasted; conditions: for AUC0-last / Cmax / Tlast / Tmax: plasma 15(S)-HEPE, Day 1; for AUC0-last / Cmax: geom. mean (geom. CV %); for Tlast / Tmax: median (minimum, maximum)
Method: as §1
Part 1 comprised 4 dose cohorts (100 mg, 500 mg, 1000 mg, and 2000 mg). Six (6) subjects were randomized to receive DS102 and 2 subjects received matching placebo. A single oral dose of DS102 or matching placebo was administered.
as §2, §3, §4

[3] = Phase I Part 2 multiple ascending dose (MAD) pharmacokinetics of plasma 15(S)-HEPE, QD for 28 days, fasted; conditions: for AUC0-last / Cmax: geom. mean; for Tlast / Tmax: median; for RAUC / RCmax: mean ± SD
Method: as §1
Part 2 of the study involved a multipledose regimen at 3 dose levels using 3 cohorts consisting of 8 subjects each. Six (6) subjects were randomized to receive DS102 and 2 subjects received matching placebo. Cohorts 5 and 6 (9 and 8 subjects, respectively) received oral DS102 or placebo QD for 28 days.
In Part 2, DS102 capsules (Lot No. 2540M-1504) or matching placebo (Lot No. KM73) were administered QD for 28 days according to Table 2.
as §3, §4

[4] = Phase I safety evaluation (AEs, clinical laboratory tests, vital signs, ECGs); conditions: healthy subjects
Method: as §1
All clinical safety data were presented in by-subject data listings. Safety was evaluated by clinical laboratory tests, physical examination, vital signs, electrocardiograms (ECGs), and adverse events (AEs).
Continuous variables were summarized using number of observations (N), mean, SD, median, minimum, and maximum. Frequency counts were reported for categorical data. AEs were classified according to the Medical Dictionary for Regulatory Activities (MedDRA®), Version 18.0. Concomitant medications were classified according to the World Health Organization (WHO) Drug Dictionary 1 Mar. 2015. Vital sign, ECG, and laboratory summary and change from baseline results were presented. Shift tables were also presented for laboratory and ECG parameters.

[5] = plasma 15(S)-HEPE, single oral 500 mg fed high fat diet, N = 6, geom. mean
[6] = plasma 15(S)-HEPE, single oral 500 mg fed high fat diet, N = 6
[7] = plasma 15(S)-HEPE, single oral 500 mg fed standard diet, N = 6, geom. mean
[8] = plasma 15(S)-HEPE, single oral 500 mg fed standard diet, N = 6
[9] = single oral 500 mg with a standard or high-fat diet
[10] = single oral 500 mg fasted, N = 2
[11] = single oral 1000 mg fasted, N = 3
[12] = single oral 2000 mg fasted, N = 3
[13] = 500 mg QD fasted, Days 14 and 28
[14] = plasma 15(S)-HEPE, 500 mg QD fasted, Day 1, N = 6
[15] = plasma 15(S)-HEPE, 500 mg QD fasted, Day 1, reported only for Subject 38
[16] = plasma 15(S)-HEPE, 500 mg QD fasted, Day 14, N = 3
[17] = plasma 15(S)-HEPE, 500 mg QD fasted, Day 28, N = 2

15-Hydroxy-Eicosapentaenoic Acid Ethyl Ester [DS102]
delay of apparition of 15(S)-HEPE in plasma ([1]; 500 mg with high-fat diet compared to standard diet): 2 h | effect of fed state on 15(S)-HEPE absorption ([1]; fed state (standard or high-fat diet)): considerably increase 15(S)-HEPE absorption | AUC0-last [1, 5]: 9.693 µg·h/mL | Cmax [1, 5]: 2.402 µg/mL | Tlast [1, 6]: 11.993 h | Tmax [1, 6]: 6.021 h | AUC0-24 [1, 7]: 10.94 µg·h/mL | AUC0-last [1, 7]: 8.45 µg·h/mL | Cmax [1, 7]: 2.42 µg/mL | Tlast [1, 8]: 8.017 h | Tmax [1, 8]: 4.014 h | AUC0-inf ([1]; plasma 15(S)-HEPE, single oral 500 mg fed standard diet, calculable for 4 subjects, geom. mean): 11.05 µg·h/mL | t½ ([1]; plasma 15(S)-HEPE, single oral 500 mg fed standard diet, calculable for 4 subjects, mean ± SD): 1.998 ± 1.5155 h | Kel ([1]; plasma 15(S)-HEPE, single oral 500 mg fed standard diet, mean ± SD): 0.471 ± 0.228 h⁻¹ | median Tmax ([1]; single oral 500 mg after a high-fat diet): 6.00 h | median Tmax ([1]; single oral 500 mg after a standard diet): 4.00 h | time at which peak mean plasma concentrations were reached [1, 9]: approximately 4 hours | time plasma concentrations remained quantifiable in at least one subject [1, 9]: 12 hours postdose | mean 15(S)-HEPE t½ ([1]; single oral 500 mg, standard diet): 2.00 h and 2.0 h | effect of diet on mean maximum and overall exposure of 15(S)-HEPE (Cmax and AUC0-last) ([1]; single oral 500 mg, standard or high-fat diet relative to fasted): increased mean maximum and overall exposure | mean plasma concentrations of 15(S)-HEPE, fed versus fasted ([1]; single oral 500 mg, standard or high-fat diet vs fasted): higher under fed conditions | AUC0-last [2, 10]: 1270 (70.9) ng * hr/mL and 1270 ng * hr/mL | Cmax [2, 10]: 343.7 (52.1) ng/mL and 343.7 ng/mL | Tlast [2, 10]: 8.001 (8.00, 8.00) hr and 8.001 hr | Tmax [2, 10]: 6.005 (6.00, 6.01) hr and 6.005 hr | AUC0-last [2, 11]: 1063 (102.6) ng * hr/mL | Cmax [2, 11]: 366.2 (102.5) ng/mL | Tlast [2, 11]: 7.999 (8.00, 8.00) hr | Tmax [2, 11]: 5.996 (5.99, 6.00) hr | AUC0-last [2, 12]: 733.3 (56.5) ng * hr/mL | Cmax [2, 12]: 294.3 (70.1) ng/mL | Tlast [2, 12]: 8.001 (8.00, 8.01) hr | Tmax [2, 12]: 8.001 (6.01, 8.01) hr | Plasma concentrations of 15(S)-HEPE ([2]; single oral 100 mg fasted, entire sampling interval, all subjects): BLQ | median Tmax ([2]; single oral 500 mg fasted): 6.00 h | median Tmax ([2]; single oral 1000 mg fasted): 6.00 h | median Tmax ([2]; single oral 2000 mg fasted): 8.00 h | time of peak mean 15(S)-HEPE concentrations ([3]; 500 mg QD fasted, Day 1): 4 h | time plasma concentrations remained measurable in at least one subject ([3]; 500 mg QD fasted, Day 14): 24 hours postdose | time plasma concentrations remained measurable in at least one subject ([3]; 500 mg QD fasted, Days 1 and 28): 12 hours postdose | predose values (troughs) [3, 13]: not quantifiable | time of peak mean 15(S)-HEPE concentrations [3, 13]: 6 h | mean plasma 15(S)-HEPE concentrations by study day ([3]; 1000 mg QD fasted): higher on Day 14 than on Days 1 and 28 | time plasma concentrations remained quantifiable in at least one subject ([3]; 1000 mg QD fasted, Day 14): 12 hours postdose | time plasma concentrations remained quantifiable in at least one subject ([3]; 1000 mg QD fasted, Days 1 and 28): 8 hours postdose | predose values (troughs) ([3]; 1000 mg QD fasted, Days 14 and 28): no quantifiable predose values | AUC0-last [3, 14]: 1.681 µg·h/mL | Cmax [3, 14]: 0.4591 µg/mL | Tlast [3, 14]: 8.079 h | Tmax [3, 14]: 5.005 h | AUC0-24 [3, 15]: 6.249 µg·h/mL | AUC0-inf [3, 15]: 6.277 µg·h/mL | Kel [3, 15]: 0.245 h⁻¹ | t½ [3, 15]: 2.824 h | AUC0-last [3, 16]: 2.37 µg·h/mL | Cmax [3, 16]: 0.6441 µg/mL | RAUC [3, 16]: 6.807 ± 10.322 | RCmax [3, 16]: 4.177 ± 5.4055 | Tlast [3, 16]: 8.034 h | Tmax [3, 16]: 5.995 h | AUC0-last [3, 17]: 2.787 µg·h/mL | Cmax [3, 17]: 0.7374 µg/mL | RAUC [3, 17]: 8.205 ± 10.210 | RCmax [3, 17]: 5.923 ± 6.8329 | Tlast [3, 17]: 10.002 h | Tmax [3, 17]: 6.004 h | adverse events considered related to the study treatment ([4]; following DS102 treatment): dysguesia and eructation | deaths, serious adverse events, discontinuations due to AEs ([4]; single and multiple ascending doses): no deaths, serious adverse events (SAEs), or subject discontinuations due to AEs | safety and tolerability ([4]; single ascending doses of 100 mg, 500 mg, 1000 mg and 2000 mg and multiple ascending doses of 500 mg, 500 and 1000 mg): safe and well tolerated

From patent US9855238B2, “Compositions comprising 15-HEPE and methods of using the same” (Afimmune Limited, priority 2015, dated 2018)
